Assay results taken from patent US20210162009A1, “CHEMOKINE VARIANTS AS IMMUNE STIMULANTS” (THE MEDICAL COLLEGE OF WISCONSIN, INC., priority 2017, published 2021).

Columns and labels:
[1] = Translational diffusion measurements (dimerisation state); format: physicochemical
Description: The lines connecting the cysteines show where the intra-and intermolecular disulfide bonds are. A) CXCL12-α2 locked dimer amino acid sequence with the conserved intramolecular disulfide bonds (black lines) and the engineered intermolecular disulfide bonds (red lines) illustrated. B) SDS-PAGE of CXCL12-αand CXCL12-α2 treated with and without dithiothreitol (DTT). […] D) N-terminal peptides corresponding to the first thirty-eight amino acids of CXCR4 are illustrated. The sequence for p38 is identical to that of CXCR4 except for an additional N-terminal Gly-Ser dipeptide (cloning artifact) and the C28A substitution (green) introduced to prevent oxidative peptide dimer formation. The sulfated peptides are identical to p38 except for the inclusion of sulfotyrosine at position 21 for p38-sY1 and at positions 7, 12 and 21 for p38-sY3.

[2] = Toxicity: serum AST, ALT, BUN; format: in vivo; conditions: 5 μM twice weekly for 3 weeks, mice
Protocol: Serum levels of aspartate aminotransferase (AST) and alanine aminotransferase (ALT) were measured using serologic assays to measure hepatic toxicity. Serum levels of blood urea nitrogen (BUN) were monitored to detect kidney damage.
Toxicity—Blood, bone marrow, and tissue levels of CXCL12 were measured using a commercially available sandwich ELISA assay (20-22). The ELISA will detect both endogenous and exogenous CXCL12. Toxicity is monitored using histopathologic assessment of heart, and kidney, and serum assays of hepatic (e.g. AST, ALT, AP) and kidney (e.g. BUN, creatinine) biomarkers, using standard veterinary assays. […] Published data (Roy et al., 2014) indicate twice weekly injection of 5 μM chemokine protein is well tolerated, with no change in body weight or appearance after 120 days in tumor xenografted mice.

CXCR4 [3] = target: T1, CXCR4 (Homo sapiens, UniProt P61073); conditions: 125I-CXCL12 displacement; read-out: Kd for binding CXCR4; cited from earlier work
[4] = relative to natural CXCL12; cited from earlier work
[5] = system: 5T33 multiple myeloma cells; assay: Mobilization of GFP-tagged 5T33 multiple myeloma cells into the blood; format: in vivo, mice; conditions: 50 μM subcutaneous, 1 hour, GFP+ cells by flow cytometry
Protocol: Representative flow cytometry plots are on the left measuring side scatter counts (SSC) and GFP+-5T33 multiple myeloma cells in the circulation before and after treatment shown in the right panels. n=5 mice per treatment group.
This mobilization is compared to the mobilization following administration of AMD3100. Mice bearing GFP-tagged 5T33 multiple myeloma cells were bled immediately prior to subcutaneous injection of either the CXCL12 locked dimer (50 μM) or AMD3100 (4 mM). Individual mice were re-bled 1-hour later and GFP+ myeloma tumor cells in peripheral circulation quantified by flow cytometry. Representative flow cytometry plots are on the left with GFP+-5T33 multiple myeloma cells in the circulation before and after treatment shown in the right panels. n=5 mice per treatment group.

lymphocytes = assay: Mobilization of lymphocytes into peripheral blood and out of bone marrow; format: in vivo, mice
Protocol: (§1) FIGS. 6A-6C show mobilization of lymphocytes into the peripheral blood (A) and out of the bone marrow (B) 1 hour after subcutaneous injection of 5 μM (0.8 mg/kg) CXCL12 locked dimer 104 or 4000 μM (20 mg/kg) plerixafor/AMD3100 102. Control mice received an injection of the chemokine vehicle (Veh), sterile PBS 100. Values are mean±SEM, n=3-4 mice per group. Asterisks (****)=[…].
The chemokine CXCL12 is produced by bone marrow stromal cells (17). A single dose infusion of plerixafor/AMD3100 competitively antagonizes CXCR4 to disrupt stromal CXCL12 interactions with bone marrow cells, mobilizing HSC to enter into the peripheral blood (6). […] Importantly, the 5 μM the CXCL12 locked dimer dose used is the same concentration we have used to block tumor metastasis in vivo and where plerixafor/AMD3100 is ineffective (FIGS. 5A-5B).
After blood collection, treated and control mice were sacrificed and the bone marrow of each femur flushed with PBS. Peripheral blood and marrow samples were centrifuged (1800×g for 15 min at room temperature), the plasma removed, and the leukocytes in the buffy coat collected, an aliquot used to enumerate the total cell population using hemocytometry, and the remaining cells transferred to flow cytometry tubes. Peripheral and bone marrow immunocytes were incubated with fluorescence-tagged antibodies to detect the HSC markers CD34, CD11, SCA1, CD90, CD38, Lin and CXCR4, or the T cell and B cell markers CD3 and CD19, respectively.
Control mice received an injection of the chemokine vehicle (Veh), sterile PBS 100. Values are mean ±SEM, n=3-4 mice per group. Asterisks (****)=P≤0.001.

CD34+CXCR4+ stem cells = assay: Mobilization of CD34+CXCR4+ hematopoietic stem cells; format: in vivo, mice
Protocol: as §1
FIGS. 8A-8C show mobilization of hematopoietic stem cells by the CXCL12 locked dimer. Mice were bled (baseline) prior to subcutaneous injection of LD at a final concentration of 5 μM. Mice were re-bled 15-minutes (FIG. 8A), 2-hours (FIG. 8B) or 4-hours (FIG. 8C) later. Two separate cohorts of mice (shown by circles and squares) were treated (n=3 per group) and show consistent increases in the number of CD34+ stem cells in the circulation.
After blood collection, treated and control mice were sacrificed and the bone marrow of each femur flushed with PBS. […] Peripheral and bone marrow immunocytes were incubated with fluorescence-tagged antibodies to detect the HSC markers CD34, CD11, SCA1, CD90, CD38, Lin and CXCR4, or the T cell and B cell markers CD3 and CD19, respectively.
FIGS. 8A-8C also show mobilization of hematopoietic stem cells by the CXCL12 locked dimer. […] Levels of CD34+CXCR4+ stem cells within circulating blood were detected and quantified using multiparametric flow cytometry.

Heparin binding = assay: Heparin binding
Description: Further, in addition to binding CXCR4, CXCL12 also binds to heparin found in the extracellular matrix on cell surfaces. […] Amino acid substitutions in CXCL12, including K24S, K27S, or K24S/K27S can prevent heparin binding and increase the half-life of CXCL12 in vivo; therefore, similar mutations in CXCL12-α2 would likely prevent heparin binding and increase the in vivo half-life of the dimer.

CXCR4 [6] = target: T1, CXCR4; conditions: 10 nM CXCL12 variants, with or without pertussis toxin; cited from earlier work
melanoma metastasis = conditions: cited from earlier work; for blocking of tumor metastasis: side-by-side equimolar comparison, 5 μM
[7] = fitted, 20 mM sodium phosphate pH 7.4

T1 sequence (P61073 whole entry): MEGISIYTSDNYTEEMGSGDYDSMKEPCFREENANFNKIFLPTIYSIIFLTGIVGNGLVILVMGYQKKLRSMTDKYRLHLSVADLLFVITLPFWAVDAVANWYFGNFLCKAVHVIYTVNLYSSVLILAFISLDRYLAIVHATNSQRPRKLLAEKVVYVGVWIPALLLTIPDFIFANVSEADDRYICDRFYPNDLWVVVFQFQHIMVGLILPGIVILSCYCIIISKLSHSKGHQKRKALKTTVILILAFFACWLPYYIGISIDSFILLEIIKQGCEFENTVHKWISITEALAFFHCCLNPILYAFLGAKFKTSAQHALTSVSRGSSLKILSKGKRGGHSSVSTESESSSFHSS

For “wild-type CXCL12: wild type CXCL12 chemokine (SEQ ID NO:3), natural ligand for CXCR4”, the “dimer Ds value” [1, 7] was ~1.0 ×10^−6 cm^2s^−1, the “pure monomer Ds value” [1, 7] was ~1.6 ×10^−6 cm^2s^−1 and the “hepatic or kidney toxicity (AST, ALT, BUN)” value [2] was “little hepatic or kidney toxicity”. The Kd (CXCR4 [3]) was 25 nM and the “stability against enzymatic digestion in serum” value [4] was “rapidly inactivated in serum”.
For “CXCL12 locked dimer: covalently locked dimer comprising two CXCL12 L36C/A65C sequences (SEQ ID NO: 1), linked by intermolecular disulfide bonds”, the “Diffusion coefficient Ds” value ([1]; 10, 50 and 150 μM protein) was 1.08-1.09 ×10^−6 cm^2s^−1, the “mobilization of multiple myeloma cells into the blood” value [5] was “mobilizes multiple myeloma cells into the blood” and the “bone marrow resident lymphocytes” value (lymphocytes; 5 μM, subcutaneous, 1 hour) was “concomitant decrease in bone marrow resident lymphocytes”. For the same compound, the “mobilization of hematopoietic cells into peripheral circulation” value (lymphocytes; 5 μM, subcutaneous, 1 hour) was “potently stimulated mobilization of hematopoietic cells into peripheral circulation”, the “ability to mobilize lymphocytes, locked dimer vs AMD3100” value (lymphocytes; 1 hour after s.c. 5 μM (0.8 mg/kg) locked dimer or 4000 μM (20 mg/kg) plerixafor/AMD3100) was “no statistical difference” and the “potency relative to plerixafor for mobilizing lymphocytes, mg/kg basis” value (lymphocytes; vs plerixafor) was 3 X. For the same compound, the “potency relative to plerixafor for mobilizing lymphocytes, molar basis” value (lymphocytes; vs plerixafor, also monocytes and neutrophils) was 1000 ×, the “number of CD34+ stem cells in circulation” value (CD34+CXCR4+ stem cells; 5 μM s.c., 15 minutes, 2 hours or 4 hours, two cohorts) was “consistent increases in the number of CD34+ stem cells in circulation” and the “mobilization of CXCR4+CD34+ hematopoietic stem cells (FIG. 6C)” value (CD34+CXCR4+ stem cells; FIG. 6C) was “mobilization of CXCR4+CD34+ hematopoietic stem cells”. For the same compound, the “hepatic or kidney toxicity (AST, ALT, BUN)” value [2] was “little hepatic or kidney toxicity”, the heparin binding (Heparin binding) was “also binds heparin” and the “G protein dependent intracellular calcium flux” value (CXCR4 [6]) was “activates the expected and prototypical G protein dependent intracellular calcium flux”. For the same compound, the “inhibition of melanoma metastasis” value (melanoma metastasis; dose response) was “dose dependently inhibits melanoma metastasis”, the “melanoma metastasis, comparison with plerixafor/AMD3100” value (melanoma metastasis; equimolar concentrations) was “more effective than plerixafor/AMD3100” and the “blocking of tumor metastasis” value (melanoma metastasis) was “blocked tumor metastasis”. The “stability against enzymatic digestion in serum” value [4] was “enhanced stability against enzymatic digestion in serum”.
In the case of `c1cc(CN2CCCNCCNCCCNCC2)ccc1CN1CCCNCCNCCCNCC1` [plerixafor/AMD3100, plerixafor, reference compound], the “blocking of tumor metastasis” value (melanoma metastasis) is given as “ineffective”.
